The test system of the series is mosquito (Anopheles stephensi) larvae. As to the kind of experiment: Standard WHO larvicidal test (WHO, 1981, slightly modified) on fourth-stage mosquito larvae, mortality after 24 hours. The class given is in vivo. The method, then:
Essential oil (0.1 ml) obtained from plant genus Foeniculum vulgare was first mixed with Tween-80 (0.1 ml) of 0.001% concentration and then the mixture was dissolved in water to make the solution of 0.01% concentration. This solution was tested against mosquito (Anopheles stephensi) larvae in the laboratory.
Standard WHO test (WHO, 1981) was employed with slight modification in the test procedure. A single fourth-stage larva was put into each of fifty vials containing 5 ml of the got test solution of each concentration. Single vial with one larva was used in one replication. Thus a total of 50 insects were used in fifty replications. Mortality data for mosquito larvae were recorded after 24 hours.
Essential oil (0.1 ml) obtained from plant genus Mentha spicata var. viridis was first mixed with Tween-80 (0.1 ml) of 0.001% concentration and then the mixture was dissolved in water to make the solution of 0.01% concentration. This solution was tested against mosquito (Anopheles stephensi) larvae in the laboratory.
Standard WHO test (WHO, 1981) was employed with slight modification in the test procedure. A single fourth-stage larva was put into each of fifty vials containing 5 ml of the test solution of each concentration. Single vial with one larva was used in one replication. Thus a total of 50 insects were used in fifty replications. Mortality data for mosquito larvae were recorded after 24 hours.
Essential oil (0.1 ml) obtained from plant genus Zingiber officinale was first mixed with Tween-80 (0.1 ml) of 0.001% concentration and then the mixture was dissolved in water to make the solution of 0.01% concentration. This solution was tested against mosquito (Anopheles stephensi) larvae in the laboratory.
Tween-80 purchased from Hi-Media, Mumbai, India, an emulsifying agent (0.1-ml) of 0.001% concentration was dissolved in water to make the solution of 0.01% concentration. This solution was tested against mosquito (Anopheles stephensi) larvae in the laboratory.
Essential oil (0.05 ml each) obtained from plant genus Foeniculum vulgare and Mentha spicata var. viridis were first mixed with Tween-80 (0.1 ml) of 0.001% concentration and then the mixture was dissolved in water to make the solution of 0.01% concentration. This solution was tested against mosquito (Anopheles stephensi) larvae in the laboratory.
Essential oil (0.05 ml each) obtained from plant genus Foeniculum vulgare and Zingiber officinale were first mixed with Tween-80 (0.1 ml) of 0.001% concentration and then the mixture was dissolved in water to make the solution of 0.01% concentration. This solution was tested against mosquito (Anopheles stephensi) larvae in the laboratory. […]

In general, mortality refers to the share of the test organisms that died. In the case of Tween-80 [Example 4], where the note is “in vivo”, the “Mean % mortality after 24 hours” value is given as 0% and the mortality turned out to be 0.0%.

As for `C/C=C\c1cc(OC)c(OC)cc1OC` [Example 14, β-Asarone], the “Mean % mortality after 24 hours” value (0.0016% concentration (standard), Anopheles stephensi larvae, Table 1 summary) was found to be 100%. This compound yielded a mortality (0.0016% concentration, fourth-stage larvae, recorded after 24 hours, laboratory conditions) of 100.0%.

The values are drawn from patent US6623766B1, “Process for insecticidal formulation effective in controlling malarial vector, mosquitoes” (Council of Scientific and Industrial Research, priority 2002, dated 2003).
